Measured values published in patent publication US7132286B2, “Method for neural stem cell differentiation using valproate” (Psychiatric Genomics, Inc., priority 2001, dated 2006).
Entries after “also recorded” stand apart in the source; their conditions may differ.

Columns and labels:
[1] = test system: rat cortical stem cells; assay: Neuronal differentiation of rat cortical stem cells (β-tubulin III immunofluorescence, cell counting); format: cell-based
Source text: Isolation of cortical and striatal stem cells. Timed pregnant Sprague Dawley rats were obtained from Taconic at embryonic age E14–E15 were sacrificed by inhalation of excess carbon dioxide. The abdomen of the rat was cleaned with 70% ethanol and the uterus was removed quickly and aseptically on the bench top. The uterus was placed in ice cold HBSS (GIBCO Cat. #20012-027) in a 10 cm petridish. After rinsing the uterus in PBS, embryos were removed from the uterus, rinsed in HBSS and collected in cold HBSS (buffered with HEPES and sodium bicarbonate) in a 10 cm petridish and placed on ice.
Plating, expansion and passaging of cortical and striatal stem cells. A generous amount of the triturated cell suspension was left in the original 15 ml tube to avoid fibroblast contamination in cultures. About 4–5 ml of the 6 ml of cells suspension was used for plating. Cells were plated at a concentration of 1.3×10^3 cells to 3.0×10^3 per cm^2 in 100 mm dish. This culture is designated P0 (passage 0).
(§1) Following plating cells were expanded for about 3–4 days (Passage 1, P1). Cells were treated daily with 10 ng/ml bFGF. The cultures were never permitted to reach more than 70% confluency. Cultures were then passaged as follows: 10 ml of HBSS without Ca^2+ and Mg^2+ was added to each 100 mm dish and the cells incubated at 37° C. for 5–15 minutes, or until sufficient numbers of the stem cells were rounded up. It is not expected that all cells in the culture will round up as there are several cell types in the culture at P0. The pH of the HBSS should be neutral at all times during this incubation. Cells were then removed from the dish by pipetting with a 5 ml pipette, and collected in a 15 or 50 ml conical tube, and centrifuged at 1000 g for 5 minutes. Cells were gently re-suspended in medium, counted, and plated at a density of 1×10^6 cells in 10 cm dishes and expanded for about 2 days in bFGF (Passage 1, P1). At that time the cells were passaged as described and plated onto pre-coated poly-L-ornithine/fibronectin vessels at concentrations indicated below for each experiment. Cells were treated with bFGF for 2 additional days. Before each treatment the bFGF was removed from the cells by washing twice with DMEM/F 12 to induce cell differentiation. For neurite outgrowth experiments, cells were seeded at 5×10^3 cells/well in 24-well plates and treated immediately.
Drug treatment. For immunofluorescence and Western analysis, cells were treated daily with either 0.5 mM of valproate (Sigma), 10 ng/ml of BDNF (R & D Systems), 20 ng/ml of NT-3 (R & D Systems), 1 nM 9cis retinoic acid (Sigma) or a dilution of NCM for 6 or 7 days. In some experiments valproate was also added with NCM and/or 9cis RA for 7 days. For human stem cell experiments, valproate (0.5 mM) or BDNF (25 ng/ml) was added for 9 days. For neurite outgrowth experiments, cells were treated for 1 day with 0.5 mM valproate or 50 ng/ml of BDNF. Where applicable, medium was changed every 2 days. After about 5–10 days, preferably on day 6 (i.e., after 6 days of drug exposure) the cells were fixed with a 4% solution of para-formaldehyde (PFA) in PBS, prepared as follows:
Immunofluorescent staining and visualization. Cells were plated at 20,000 cells/well in poly-L-ornithine/fibronectin (1 mg/ml) coated 24-well plates. After fixation, the PBS was aspirated from the fixed cells and the cells were treated with blocking solution (10% normal goat serum-NGS-Jackson Labs), 0.3% Triton-Sigma, in PBS) to saturate non-specific sites and permeabilize the cells. […]

[2] = test system: β tubulin-III; assay: Western blot of β tubulin-III expression in rat cortical stem cells; format: cell-based; details: valproate 1 day
[3] = literature; cited from earlier work
[4] = test system: rat cortical stem cells; assay: Neurite outgrowth of neurons derived from rat cortical stem cells (ArrayScan neurite outgrowth index); format: cell-based; details: 1 day; 0.5 mM valproate, 50 ng/ml BDNF; control 35.1+0.3
Description: as §1, with “At that time the cells were passaged as described and plated onto pre-coated poly-L-ornithine/fibronectin vessels at concentrations indicated below for each experiment. Cells were treated with bFGF for 2 additional days. Before each treatment the bFGF was removed from the cells by washing twice with DMEM/F 12 to induce cell differentiation. For neurite outgrowth experiments, cells were seeded at 5×10^3 cells/well in 24-well plates and treated immediately.” left out
For analysis of neurite outgrowth, digital images were taken with an ArrayScan HCS System (Cellomics, Pa.) of 100 cells/well treated with valproate (0.5 mM) and BDNF (50 ng/ml) for 1 day. […] Neurite outgrowth index is defined as the percentage of cells whose neurites total more than 20 μm in length, and is calculated using Cellomics' Neurite Outgrowth application.

[5] = rat cortical stem cells, 6 days, vs control

CCCC(CCC)C(=O)O [valproate, 2-Propylpentanoic acid]
increase of percentage of β-tubulin III expressing neurons over the control ([1]; rat cortical neural stem cells, 6 days): ~5 fold | morphology of neurons ([1]; rat cortical stem cells, 6 days valproate): growing in clusters and had longer process than cells in control | effect on neuronal differentiation (percentage of β-tubulin-III expressing cells) in words [1, 5]: increases neuronal differentiation more efficiently than neurotrophins or growth factors | effect on number of neurons per field [1, 5]: increases the number of neurons | effect on total cell number (proliferation), bis-benzimide nuclei [1, 5]: without valproate affecting the total cell number; also recorded: total number of cells is comparable to control; also recorded: does not inhibit neural stem cell proliferation | percentage of β-tubulin III expressing neurons (mean+SD) ([1]; rat cortical stem cells, daily treatment 6 days, 0.5 mM valproate, 10 ng/ml BDNF, 20 ng/ml NT-3, untreated control 6.2+1.8%): 25.8+0.8% | neuronal differentiation compared to control, in words ([1]; rat cortical stem cells, daily treatment 7 days, 0.5 mM valproate, 0.5× NCM, 1 nM 9-cis RA): increased the neuronal differentiation | maximum percentage of neurons ([1]; valproate added with 9-cis RA and NCM, 7 days, rat cortical stem cells): 60% | β-tubulin III expression by Western blot [2]: increase of β-tubulin III expression; also recorded: increases β tubulin-III expression | teratogenic activity [3]: established human teratogen | neurite index (percentage of cells whose neurites total more than 20 μm in length) [4]: 49+1.9
